System: PDC 899932-113-R3-J6 complex spheroid viability
Assay: Anticancer human tumor 899932-113-R3-J6-PDC patient-derived melanoma cell line growth inhibition [RAS]
Conditions: for viability, T/C: stronger effect = lower value
Method in brief: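 Agents were tested in combination matrices in half-log decrements from a top concentration at or near clinical Cmax (10 microM if undetermined). Targets were multi-cell spheroids of tumour lines plus HUVEC and MSC stromal cells.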

[1] = curve of first compound, second compound 0.000949 µM
[2] = curve of first compound, second compound 0.003 µM
[3] = curve of first compound, second compound 0.00949 µM
[4] = curve of first compound, second compound 0.03 µM
[5] = curve of first compound, second compound 0.0949 µM
[6] = curve of first compound, second compound 0.3 µM
[7] = second compound 0.000949 µM, first compound 0.0316 µM
[8] = second compound 0.000949 µM, first compound 0.1 µM
[9] = second compound 0.000949 µM, first compound 0.316 µM
[10] = second compound 0.000949 µM, first compound 1 µM
[11] = second compound 0.000949 µM, first compound 3.16 µM
[12] = second compound 0.000949 µM, first compound 10 µM
[13] = second compound 0.003 µM, first compound 0.0316 µM
[14] = second compound 0.003 µM, first compound 0.1 µM
[15] = second compound 0.003 µM, first compound 0.316 µM
[16] = second compound 0.003 µM, first compound 1 µM
[17] = second compound 0.003 µM, first compound 3.16 µM
[18] = second compound 0.003 µM, first compound 10 µM
[19] = second compound 0.00949 µM, first compound 0.0316 µM
[20] = second compound 0.00949 µM, first compound 0.1 µM
[21] = second compound 0.00949 µM, first compound 0.316 µM
[22] = second compound 0.00949 µM, first compound 1 µM
[23] = second compound 0.00949 µM, first compound 3.16 µM
[24] = second compound 0.00949 µM, first compound 10 µM
[25] = second compound 0.03 µM, first compound 0.0316 µM
[26] = second compound 0.03 µM, first compound 0.1 µM
[27] = second compound 0.03 µM, first compound 0.316 µM
[28] = second compound 0.03 µM, first compound 1 µM
[29] = second compound 0.03 µM, first compound 3.16 µM
[30] = second compound 0.03 µM, first compound 10 µM
[31] = second compound 0.0949 µM, first compound 0.0316 µM
[32] = second compound 0.0949 µM, first compound 0.1 µM
[33] = second compound 0.0949 µM, first compound 0.316 µM
[34] = second compound 0.0949 µM, first compound 1 µM
[35] = second compound 0.0949 µM, first compound 3.16 µM
[36] = second compound 0.0949 µM, first compound 10 µM
[37] = second compound 0.3 µM, first compound 0.0316 µM
[38] = second compound 0.3 µM, first compound 0.1 µM
[39] = second compound 0.3 µM, first compound 0.316 µM
[40] = second compound 0.3 µM, first compound 1 µM
[41] = second compound 0.3 µM, first compound 3.16 µM
[42] = second compound 0.3 µM, first compound 10 µM
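Throughout, for viability, T/C: spheroids exposed to agents for seven days before readout; 100% = DMSO vehicle control wells.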

SMILES: NC1c2ccccc2OC12CCN(c1cnc3c(N4CCCc5ncccc54)n[nH]c3n1)CC2 (configuration not stated) + CCn1c(-c2cccnc2C(C)OC)c2c3cc(ccc31)N1CCOC(CC(NC(=O)C(C(C)C)N(C)C(=O)C3(F)CCN(C(=O)C#CC(C)(C)N(C)C)CC3)C(=O)N3CCCC(N3)C(=O)OCC(C)(C)C2)C1
- IC50 [1]: > 10000 nM
- IC50 [2]: > 10000 nM
- IC50 [3]: > 10000 nM
- IC50 [4]: > 10000 nM
- IC50 [5]: > 10000 nM
- IC50 [6]: > 10000 nM
- viability, T/C [7]: 113%
- viability, T/C [8]: 102%
- viability, T/C [9]: 112%
- viability, T/C [10]: 120%
- viability, T/C [11]: 114%
- viability, T/C [12]: 101%
- viability, T/C [13]: 113%
- viability, T/C [14]: 112%
- viability, T/C [15]: 111%
- viability, T/C [16]: 120%
- viability, T/C [17]: 111%
- viability, T/C [18]: 110%
- viability, T/C [19]: 112%
- viability, T/C [20]: 112%
- viability, T/C [21]: 110%
- viability, T/C [22]: 129%
- viability, T/C [23]: 120%
- viability, T/C [24]: 109%
- viability, T/C [25]: 112%
- viability, T/C [26]: 116%
- viability, T/C [27]: 105%
- viability, T/C [28]: 117%
- viability, T/C [29]: 112%
- viability, T/C [30]: 106%
- viability, T/C [31]: 100%
- viability, T/C [32]: 102%
- viability, T/C [33]: 94.4%
- viability, T/C [34]: 113%
- viability, T/C [35]: 108%
- viability, T/C [36]: 98.5%
- viability, T/C [37]: 97.7%
- viability, T/C [38]: 85.1%
- viability, T/C [39]: 95.7%
- viability, T/C [40]: 96.8%
- viability, T/C [41]: 92.6%
- viability, T/C [42]: 85.7%

SMILES: CCC(CC)c1cc(NC2CCC(N)C2)n2nccc2n1 (configuration not stated) + CCn1c(-c2cccnc2C(C)OC)c2c3cc(ccc31)N1CCOC(CC(NC(=O)C(C(C)C)N(C)C(=O)C3(F)CCN(C(=O)C#CC(C)(C)N(C)C)CC3)C(=O)N3CCCC(N3)C(=O)OCC(C)(C)C2)C1
- IC50 [1]: 1460 nM
- IC50 [2]: 1580 nM
- IC50 [3]: 1500 nM
- IC50 [4]: 1490 nM
- IC50 [5]: 1310 nM
- IC50 [6]: 1220 nM
- viability, T/C [7]: 104%
- viability, T/C [8]: 86.7%
- viability, T/C [9]: 94.8%
- viability, T/C [10]: 73.8%
- viability, T/C [11]: 1.84%
- viability, T/C [12]: 0.94%
- viability, T/C [13]: 95.8%
- viability, T/C [14]: 85.5%
- viability, T/C [15]: 90.9%
- viability, T/C [16]: 81.7%
- viability, T/C [17]: 1.51%
- viability, T/C [18]: 1.01%
- viability, T/C [19]: 94.7%
- viability, T/C [20]: 82.3%
- viability, T/C [21]: 87.1%
- viability, T/C [22]: 76.7%
- viability, T/C [23]: 1.18%
- viability, T/C [24]: 0.88%
- viability, T/C [25]: 86.7%
- viability, T/C [26]: 77.1%
- viability, T/C [27]: 85.3%
- viability, T/C [28]: 75.9%
- viability, T/C [29]: 1.56%
- viability, T/C [30]: 0.52%
- viability, T/C [31]: 80.2%
- viability, T/C [32]: 83.4%
- viability, T/C [33]: 87.5%
- viability, T/C [34]: 64.8%
- viability, T/C [35]: 1.71%
- viability, T/C [36]: 0.88%
- viability, T/C [37]: 79.8%
- viability, T/C [38]: 73.5%
- viability, T/C [39]: 77.9%
- viability, T/C [40]: 60%
- viability, T/C [41]: 1.44%
- viability, T/C [42]: 0.36%

SMILES: CCC(CC)c1cc(NC2CCC(N)C2)n2nccc2n1 (configuration not stated)
- viability, T/C (compound 0.0316 µM): 106% [middle of 4 runs]
- viability, T/C (compound 0.1 µM): 94.7% [middle of 4 runs]
- viability, T/C (compound 0.316 µM): 99.3% [middle of 4 runs]
- viability, T/C (compound 3.16 µM): 1.29% [middle of 4 runs]
- viability, T/C (compound 10 µM): 1% [middle of 4 runs]
- IC50 (curve of compound): 1.63 µM [middle of 4 runs]

SMILES: CC1(O)CCCC1n1c(=O)c(C(F)F)cc2cnc(NC3CCN(S(C)(=O)=O)CC3)nc21 (configuration not stated) + C=CC(=O)N1CCN(c2nc(OCC3CCCN3C)nc3c(F)c(-c4nc(N)cc(C)c4C(F)(F)F)c(Cl)cc23)C(C)C1
- IC50 (curve of first compound, second compound 0.00316 µM): 1840 nM
- IC50 (curve of first compound, second compound 0.01 µM): 4020 nM
- IC50 (curve of first compound, second compound 0.0316 µM): 2480 nM
- IC50 (curve of first compound, second compound 0.1 µM): 1820 nM
- IC50 (curve of first compound, second compound 0.316 µM): 3290 nM
- IC50 (curve of first compound, second compound 1 µM): 3300 nM
- viability, T/C (second compound 0.00316 µM, first compound 0.0316 µM): 99%
- viability, T/C (second compound 0.00316 µM, first compound 0.1 µM): 73.6%
- viability, T/C (second compound 0.00316 µM, first compound 0.316 µM): 62%
- viability, T/C (second compound 0.00316 µM, first compound 1 µM): 63.5%
- viability, T/C (second compound 0.00316 µM, first compound 3.16 µM): 57.3%
- viability, T/C (second compound 0.00316 µM, first compound 10 µM): 21.4%
- viability, T/C (second compound 0.01 µM, first compound 0.0316 µM): 92%
- viability, T/C (second compound 0.01 µM, first compound 0.1 µM): 81.3%
- viability, T/C (second compound 0.01 µM, first compound 0.316 µM): 71.1%
- viability, T/C (second compound 0.01 µM, first compound 1 µM): 69.1%
- viability, T/C (second compound 0.01 µM, first compound 3.16 µM): 64.5%
- viability, T/C (second compound 0.01 µM, first compound 10 µM): 19.5%
- viability, T/C (second compound 0.0316 µM, first compound 0.0316 µM): 94%
- viability, T/C (second compound 0.0316 µM, first compound 0.1 µM): 88.2%
- viability, T/C (second compound 0.0316 µM, first compound 0.316 µM): 65.8%
- viability, T/C (second compound 0.0316 µM, first compound 1 µM): 66.2%
- viability, T/C (second compound 0.0316 µM, first compound 3.16 µM): 53.1%
- viability, T/C (second compound 0.0316 µM, first compound 10 µM): 19.2%
- viability, T/C (second compound 0.1 µM, first compound 0.0316 µM): 96.2%
- viability, T/C (second compound 0.1 µM, first compound 0.1 µM): 80.4%
- viability, T/C (second compound 0.1 µM, first compound 0.316 µM): 62.2%
- viability, T/C (second compound 0.1 µM, first compound 1 µM): 62.7%
- viability, T/C (second compound 0.1 µM, first compound 3.16 µM): 54.5%
- viability, T/C (second compound 0.1 µM, first compound 10 µM): 21.5%
- viability, T/C (second compound 0.316 µM, first compound 0.0316 µM): 94.7%
- viability, T/C (second compound 0.316 µM, first compound 0.1 µM): 80.1%
- viability, T/C (second compound 0.316 µM, first compound 0.316 µM): 65%
- viability, T/C (second compound 0.316 µM, first compound 1 µM): 67.8%
- viability, T/C (second compound 0.316 µM, first compound 3.16 µM): 60%
- viability, T/C (second compound 0.316 µM, first compound 10 µM): 17.3%
- viability, T/C (second compound 1 µM, first compound 0.0316 µM): 88.5%
- viability, T/C (second compound 1 µM, first compound 0.1 µM): 81.2%
- viability, T/C (second compound 1 µM, first compound 0.316 µM): 63.7%
- viability, T/C (second compound 1 µM, first compound 1 µM): 62%
- viability, T/C (second compound 1 µM, first compound 3.16 µM): 62%
- viability, T/C (second compound 1 µM, first compound 10 µM): 14%
